Measurements from PMC10257043 (Molecular Plant Pathology, 2023).

T1: Uvi2 (Ustilago hordei, UniProt I2G262)
T1 sequence (I2G262 22-243): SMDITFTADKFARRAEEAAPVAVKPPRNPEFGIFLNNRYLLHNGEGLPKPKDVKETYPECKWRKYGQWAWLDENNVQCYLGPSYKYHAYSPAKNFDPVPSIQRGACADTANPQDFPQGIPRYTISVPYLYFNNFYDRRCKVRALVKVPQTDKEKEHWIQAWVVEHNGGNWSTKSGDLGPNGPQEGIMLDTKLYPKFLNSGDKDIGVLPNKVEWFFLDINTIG


Experiments:
Uvi2 = molecular target: T1, Uvi2; assay: microscale thermophoresis; type: binding; settings: MST as for Cpl1
SEC-MALS = molecular target: the molecule itself; assay: SEC-MALS

Kd (Uvi2)	Molecule	stoichiometry N (SEC-MALS)
15 ± 3.72 µM	CC(=O)N[C@H]1[C@H](O[C@H]2[C@H](O)[C@@H](NC(C)=O)C(O)O[C@@H]2CO)O[C@H](CO)[C@@H](O)[C@@H]1O (some centres unmarked) [chitobiose]	–
–	Uvi2 (UHOR_02700 gene product), the Cpl1 homologue from Ustilago hordei, recombinant (natural protein) SMDITFTADKFARRAEEAAPVAVKPPRNPEFGIFLNNRYLLHNGEGLPKPKDVKETYPECKWRKYGQWAWLDENNVQCYLGPSYKYHAYSPAKNFDPVPSIQRGACADTANPQDFPQGIPRYTISVPYLYFNNFYDRRCKVRALVKVPQTDKEKEHWIQAWVVEHNGGNWSTKSGDLGPNGPQEGIMLDTKLYPKFLNSGDKDIGVLPNKVEWFFLDINTIG	2
